System: surface/cytoplasmic nucleolin
Experiment: Down regulation of surface/cytoplasmic nucleolin in MDA-MB 231 cells, immunoblotting
Format: cell-based, human
Conditions: MDA-MB 231, 10 μM, 16 hours, immunoblotting with mAb D3; nuclear nucleolin not affected
Description: Nucleolin was analyzed by immunoblotting using either the monoclonal antibody (mAb) D3 against nucleolin (kindly provided by Dr. J. S. Deng), or rabbit polyclonal antibodies directed against a synthetic peptide corresponding to the first 26 ([…]) and the last 16 ([…]) amino acid residues of human nucleolin as described before. […] The reacting bands were visualized with an enhanced chemiluminescence (ECL) reagent and by exposure to autoradiography film (Amersham Biosciences). In some experiments, the presence of actin was monitored as a control with mAb anti-actin A-4700 (Sigma). […]
Figure 2 HB-19 and related Nucant pseudopeptides antagonize surface nucleolin and trigger its down regulation. […] At 48 h post-infection, the β-galactosidase activity was measured in cell extracts directly to monitor HIV entry (Methods). The abscissa gives % Activity of surface nucleolin calculated from the optical density measurements at 570 nm. […] Cytoplasmic (containing cytoplasmic as well as surface nucleolin) and nuclear extracts were analyzed by immunoblotting using mAb D3 as described (Methods)(panels Surface/cytoplasmic NCL, Nuclear NCL). […] HeLa cells in the absence (histogram C) or presence of 1, 2, 5, and 10 μM of N6L were cultured for 7 hours before preparation of cell extracts and immunoblotting as in section B. The intensity of nucleolin protein bands was quantified by using the NIH image software. […]

Row | Substance | level of surface/cytoplasmic nucleolin
1 | Ac-KAKPGKAKPGKAKPG-NH2 [Nucant N7, Presents hexavalently the pseudo-tripeptide Lysψ(CH2N)-Pro-Arg coupled to a similar template as in HB-19] | almost completely abolished
2 | Ac-Lys-Aib-Gly-Lys-Aib-Gly-Lys-Aib-Gly-Lys-Aib-Gly-Lys-Aib-Gly-Lys-Aib-Gly-CONH2 [Nucant N6, Presents hexavalently the pseudo-tripeptide Lysψ(CH2N)-Pro-Arg coupled to the polypeptide template containing Aib] | almost completely abolished
